Consider 17 compounds from patent publication US7807675B2, “Hyaluronic acid-methotrexate conjugate” (priority 2004, dated 2010).

By IC50 is commonly meant the concentration that inhibits the measured activity by half.

The test system of experiment [1] is human synovial cells derived from RA patients (HFLS-RA). In words: Suppressive effect on proliferation of human synovial cells (HFLS-RA) stimulated by TNF-α. The experiment is classed as cell-based. The settings on record: TNF-α 10 ng/mL, 5 days, [3H]-deoxyuridine uptake, concentration calculated as MTX. From the text: (§1) Effects of the HA-MTX conjugates of the invention on cell proliferation induced by TNF-α stimulation were examined using human synovial cells (HFLS). The main lesion in rheumatoid arthritis (RA) occurs in the synovial tissue, and one of the features of RA is known to be that synovial cells abnormally proliferate to form a granulation tissue (pannus) and thereby destroy the cartilage and bone of the joint. Secondary synovitis is also observed in osteoarthritis (OA). […] Thus, a compound inhibiting the proliferation of synovial cells stimulated by an inflammatory cytokine, TNF-α, becomes a drug for suppressing the progression of the pathologic conditions of, or for treating RA and OA.
(§2) The sterile aqueous solutions of the HA-MTX conjugates in Example 3 were used as test substances. As HFLS, human synovial cells derived from RA patients (HFLS-RA, CA404-05, Lot No.: 1493) and human synovial cells derived from OA patients (HFLS-OA, CA400-05, Lot No.: 1442) were purchased from Cell Applications Ins for use.
(§3) HFLS was seeded at 5,000 cells/well on a 96-well plate (Falcon) and cultured for 3 hours in Iscove's modified Dulbecco's medium (IMDM) containing 5% FBS and 1× Antibiotic-Antimycotic (GIBOC). After cellular attachment, TNF-α (final concentration: 10 ng/mL) and each HA-MTX conjugate at each concentration was added, followed by cultivation for 5 days. Two days before the end of culture, was added 37 kBq/well of [^3H]-deoxyuridine in the cells (MORAVEK), followed by determining the uptake quantity (radioactivity) of [^3H]-deoxyuridine using a scintillation counter. Cells were recovered by unsticking them with 0.05% trypsin-0.2% EDTA.
(§4) Radioactivity determined in each of the experiments with each test substance was calculated as a relative value (% of control), using, as control, radioactivity in the group of cells cultured without adding any test substance. Since the concentration of a free carboxyl group is 2.49×10^−3 mol/L (1 g/401/L; 401 is the molecular weight of N-acetylglucosamine+glucuronic acid) for each 1 mg/mL of hyaluronic acid, the MTX concentration in each HA-MTX was calculated by multiplying the value by the conjugation rate of MTX. (For 1 mg/mL of HA-MTX conjugate with a conjugation rate of MTX of 1%, the concentration of MTX was 2.49×10^−5 mol/L) The value obtained was used to calculate the activity of inhibiting cell proliferation (IC50 value) by a 4-parameter logistic method (analysis software: GraphPad Prism 3.02 and 4.02).

Experiment [2] concerns human synovial cells derived from OA patients (HFLS-OA). Kind of experiment: Suppressive effect on proliferation of human synovial cells (HFLS-OA) stimulated by TNF-α. The experiment is classed as cell-based. Particulars: TNF-α 10 ng/mL, 5 days, [3H]-deoxyuridine uptake, concentration calculated as MTX.
Excerpt: as §1, §2, §3, §4

The subject of experiment [3] is mBSA-induced monoarthritis model. In words: Suppressive effect on knee joint swelling in mBSA-induced monoarthritis model. Particulars: for AUC (% of control) (mean ± SEM): AUC of knee joint swelling, control = HA-treated group, LEW/Crj rat, 50 μL into right knee joint 7 and 1 day before and 7 days after inducing arthritis. The experiment is classed as in vivo, rat. As to the method: An in vivo synovitis-suppressing effect of each HA-MTX conjugate of the invention was assessed on the basis of a suppressive effect on knee joint swelling in a methylated bovine serum albumin (mBSA)-induced monoarthritis model of rat. Since the mBSA-induced arthritis model employed in this experimental example is widely used as an antigen-induced arthritis model, and known to develop synovitis (Sven E. Andersson, et al., The Journal of Rheumatology (1998) 25: 9, 1772-7), the in vivo knee joint swelling-suppressing effect observed in this model conceivably represents a synovitis-suppressing effect. The compounds of the invention suppressing synovitis in vivo are useful as therapeutic drugs for joint diseases accompanied by synovitis (RA, OA, and the like).
The animal used was the LEW/Crj rat (6-week old male, from Charles River Laboratories Japan, Inc.). Into the flank of the rat was subcutaneously injected 0.5 mL of an emulsion prepared from a 2 mg/mL mBSA (Calbiochem) aqueous solution and an equal amount of Freund's complete adjuvant (Difco) 21 and 14 days before inducing arthritis. The arthritis was induced by administering 50 μL of a 2 mg/mL mBSA aqueous solution into the right knee joint. The left knee joint was untreated, and served as control in each individual. Each test substance (sterile aqueous solution) and the control drug hyaluronic acid were each administered into the right knee joint in an amount of 50 μL 7 and 1 day before and 7 days after inducing arthritis.
The determination of knee joint swelling involved measuring the widths of both knee joints with calipers to define the left/right difference (right knee diameter−left knee diameter) as a knee joint swelling. The width of each knee joint was measured at a frequency of twice a week from immediately before inducing arthritis to two weeks later to calculate AUC (an abbreviation for Area Under the Curve; here, it means an area under a curve with time for the joint swelling) from the transition thereof with time. At each measurement, the mean and standard deviation of AUC were calculated to perform an unpaired t-test between each test substance-treated group and the HA-treated group, and significant difference was judged to be present if the probability level is less than 5%. Statistical analysis used SAS version 6.12 or 8.02 (SAS Institute Japan). In addition, the AUC of each test substance was calculated, using that in the HA-treated group as a control, as a relative value (% of control) therefor.
To verify the usefulness of the HA-MTX conjugate of the invention, the suppressive effect on joint swelling was compared, in accordance with the method of Example 3, among: 1) a group treated with the HA-MTX conjugate (sterile aqueous solution) prepared in Example 3-10; 2) a group treated with a solution containing MTX of an amount equal to that of MTX contained in the HA-MTX conjugate; and 3) a group of treated with a mixture (HA+MTX) of MTX and hyaluronic acid (HA) of amounts equal to those contained in the conjugate. HA and vehicle (2 mM phosphate buffer, 0.9% NaCl) was used as controls. In this Experimental Example, Suvenyl (SVE, Chugai Pharmaceutical Co., Ltd.) was used as HA. The time course of knee joint swelling in this test is shown in FIG. 1, and the AUC thereof in FIG. 2.

On to `CN(Cc1cnc2nc(N)nc(N)c2n1)c1ccc(C(=O)N[C@@H](CCC(=O)O)C(=O)O)cc1` [MTX alone, methotrexate], for which the IC50 in experiment [1] was 0.11 µM; in experiment [2], 0.31 µM. For the same compound, in experiment [3] (Experimental Example 4, arthritis model, amounts equal to those in the conjugate of Example 3-10), the “alleviating effect on synovitis” value was “neither MTX alone nor the mixture of HA and MTX had a sufficient alleviating effect on synovitis”. For the compound “MTX-α-Ile-NHC10H20O3NHCO—O—[HA] [Example 3-16]”, in experiment [2], the half-maximal inhibitory concentration (IC50) was 0.23 µM. Also, the “AUC (% of control) (mean ± SEM)” value in experiment [3] was 65.5 ± 4.4 % of control. Regarding “MTX-α-PheGly-NHC10H20O3NHCO—O—[HA] [Example 3-15]”, in experiment [2], the IC50 was 0.45 µM. In experiment [3], the “AUC (% of control) (mean ± SEM)” value is reported as 50.1 ± 4.9 % of control. Consider “MTX-α-PhePhe-NHC10H20O3NHCO—O—[HA] [Example 3-1]”, for which the IC50 in experiment [1] was 1.2 µM.

For “MTX-α-PhePhe-NHC10H20O3NHCO—O—[HA] [Example 3-2]”, in experiment [1], the IC50 is 0.46 µM. Regarding “MTX-α-PhePhe-NHC10H20O3NHCO—O—[HA] [Example 3-3]”, the IC50 in experiment [1] is 0.096 µM. For the same compound, the “AUC (% of control) (mean ± SEM)” value in experiment [3] was 59.7 ± 5.4 % of control. For the compound “MTX-α-PhePhe-NHC10H20O3NHCO—O—[HA] [Example 3-4]”, the “AUC (% of control) (mean ± SEM)” value in experiment [3] is reported as 53.6 ± 5.4 % of control. Still for that read-out and setting: to “MTX-α-PhePhe-NHC10H20O3NHCO—O—[HA] [Example 3-5]” belongs 46.6 ± 4.0 % of control. With “MTX-α-PhePhe-NHC10H20O3NHCO—O—[HA] [Example 3-6]”, the IC50 in experiment [2] is 1.4 µM. Further, the “AUC (% of control) (mean ± SEM)” value in experiment [3] is recorded as 69.7 ± 7.2 % of control. As to “MTX-α-PhePhe-NHC10H20O3NHCO—O—[HA] [Example 3-7]”, the IC50 in experiment [2] is 0.41 µM. The “AUC (% of control) (mean ± SEM)” value in experiment [3] is 47.7 ± 4.3 % of control. With “MTX-α-PhePhe-NHC10H20O3NHCO—O—[HA] [Example 3-8]”, the IC50 in experiment [2] is 0.14 µM. Consider “MTX-α-PhePhe-NHC10H20O3NHCO—O—[HA] [Example 3-9]”, for which the IC50 in experiment [2] was 0.18 µM. The “AUC (% of control) (mean ± SEM)” value in experiment [3] is 48.4 ± 2.9 % of control. With “MTX-α-PhePhe-NHC10H20O3NHCO—O—[HA] [Example 3-10]”, in experiment [2], the IC50 was 0.077 µM. The “AUC (% of control) (mean ± SEM)” value in experiment [3] was 42.3 ± 4.8 % of control. Further, the “suppressive effect on the joint swelling” value in experiment [3] (Experimental Example 4, compared to MTX alone or the mixture of MTX and HA in equal amounts, FIGS. 1 and 2) was “markedly strong suppressive effect on the joint swelling in the arthritis model compared to that of MTX alone or the mixture of MTX and HA”.

For the compound “MTX-α-PhePhe-NHC10H20O3NHCO—O—[HA] [Example 3-11]”, the IC50 in experiment [2] was 33 µM. For the same compound, the “AUC (% of control) (mean ± SEM)” value in experiment [3] is 67.1 ± 8.0 % of control. For the compound “MTX-α-PhePhe-NHC10H20O3NHCO—O—[HA] [Example 3-12]”, in experiment [2], the IC50 is 2 µM. In addition, in experiment [3], the “AUC (% of control) (mean ± SEM)” value is listed as 49.2 ± 1.2 % of control. “MTX-α-PhePhe-NHC10H20O3NHCO—O—[HA] [Example 3-13]”: the IC50 in experiment [2] was 0.29 µM. Moreover, the “AUC (% of control) (mean ± SEM)” value in experiment [3] is on record as 42.0 ± 4.5 % of control.

For the compound “MTX-α-PhePhe-NHC10H20O3NHCO—O—[HA] [Example 3-14]”, in experiment [2], the IC50 was 9.7 µM.
